Activity calls are given as the source filed them. The calls are words filed in the database; no cut-off is given here.
Experiments:
[1] = tested on: Mus musculus; experiment: Neurotoxicity in Carworth farms No.1 albino mouse assessed as neurological impairment at 30 mg/kg, ip measured after 0.5 hrs; assay type: toxicity, organism-based; set-up: dose 30 mg/kg, route intraperitoneal; conditions: in vivo
[2] = tested on: Mus musculus; experiment: Neurotoxicity in Carworth farms No.1 albino mouse assessed as neurological impairment at 100 mg/kg, ip measured after 0.5 hrs; assay type: toxicity, organism-based; set-up: dose 100 mg/kg, route intraperitoneal; conditions: in vivo
[3] = tested on: Mus musculus; experiment: Neurotoxicity in Carworth farms No.1 albino mouse assessed as neurological impairment at 300 mg/kg, ip measured after 0.5 hrs; assay type: toxicity, organism-based; set-up: dose 300 mg/kg, route intraperitoneal; conditions: in vivo
[4] = tested on: Mus musculus; experiment: Neurotoxicity in Carworth farms No.1 albino mouse assessed as neurological impairment at 30 mg/kg, ip measured after 4 hrs; assay type: toxicity, organism-based; set-up: dose 30 mg/kg, route intraperitoneal; conditions: in vivo
[5] = tested on: Mus musculus; experiment: Neurotoxicity in Carworth farms No.1 albino mouse assessed as neurological impairment at 100 mg/kg, ip measured after 4 hrs; assay type: toxicity, organism-based; set-up: dose 100 mg/kg, route intraperitoneal; conditions: in vivo
[6] = tested on: Mus musculus; experiment: Neurotoxicity in Carworth farms No.1 albino mouse assessed as neurological impairment at 300 mg/kg, ip measured after 4 hrs; assay type: toxicity, organism-based; set-up: dose 300 mg/kg, route intraperitoneal; conditions: in vivo
[7] = tested on: Mus musculus; experiment: Anticonvulsant activity in Carworth farms No.1 albino mouse assessed as protection against maximum electroshock at 30 mg/kg, ip measured after 0.5 hrs; assay type: functional, organism-based; set-up: dose 30 mg/kg
[8] = tested on: Mus musculus; experiment: Anticonvulsant activity in Carworth farms No.1 albino mouse assessed as protection against maximum electroshock at 100 mg/kg, ip measured after 0.5 hrs; assay type: functional, organism-based; set-up: dose 100 mg/kg
[9] = tested on: Mus musculus; experiment: Anticonvulsant activity in Carworth farms No.1 albino mouse assessed as protection against maximum electroshock at 300 mg/kg, ip measured after 0.5 hrs; assay type: functional, organism-based; set-up: dose 300 mg/kg
[10] = tested on: Mus musculus; experiment: Anticonvulsant activity in Carworth farms No.1 albino mouse assessed as protection against maximum electroshock at 30 mg/kg, ip measured after 4 hrs; assay type: functional, organism-based; set-up: dose 30 mg/kg
[11] = tested on: Mus musculus; experiment: Anticonvulsant activity in Carworth farms No.1 albino mouse assessed as protection against maximum electroshock at 100 mg/kg, ip measured after 4 hrs; assay type: functional, organism-based; set-up: dose 100 mg/kg
[12] = tested on: Mus musculus; experiment: Anticonvulsant activity in Carworth farms No.1 albino mouse assessed as protection against maximum electroshock at 300 mg/kg, ip measured after 4 hrs; assay type: functional, organism-based; set-up: dose 300 mg/kg
[13] = tested on: Mus musculus; experiment: Anticonvulsant activity in Carworth farms No.1 albino mouse assessed as protection against subcutaneous metrazole-induced seizures at 30 mg/kg, ip measured after 0.5 hrs; assay type: functional, organism-based; set-up: dose 30 mg/kg
[14] = tested on: Mus musculus; experiment: Anticonvulsant activity in Carworth farms No.1 albino mouse assessed as protection against subcutaneous metrazole-induced seizures at 100 mg/kg, ip measured after 0.5 hrs; assay type: functional, organism-based; set-up: dose 100 mg/kg
[15] = tested on: Mus musculus; experiment: Anticonvulsant activity in Carworth farms No.1 albino mouse assessed as protection against subcutaneous metrazole-induced seizures at 300 mg/kg, ip measured after 0.5 hrs; assay type: functional, organism-based; set-up: dose 300 mg/kg
[16] = tested on: Mus musculus; experiment: Anticonvulsant activity in Carworth farms No.1 albino mouse assessed as protection against subcutaneous metrazole-induced seizures at 30 mg/kg, ip measured after 4 hrs; assay type: functional, organism-based; set-up: dose 30 mg/kg
[17] = tested on: Mus musculus; experiment: Anticonvulsant activity in Carworth farms No.1 albino mouse assessed as protection against subcutaneous metrazole-induced seizures at 100 mg/kg, ip measured after 4 hrs; assay type: functional, organism-based; set-up: dose 100 mg/kg
[18] = tested on: Mus musculus; experiment: Anticonvulsant activity in Carworth farms No.1 albino mouse assessed as protection against subcutaneous metrazole-induced seizures at 300 mg/kg, ip measured after 4 hrs; assay type: functional, organism-based; set-up: dose 300 mg/kg
[19] = tested on: Mus musculus; experiment: Anticonvulsant activity in Carworth farms No.1 albino mouse assessed as protection against 6 Hz electric current-induced seizure at 100 mg/kg, ip measured after 0.25 hrs; assay type: functional, organism-based; set-up: dose 100 mg/kg
[20] = tested on: Mus musculus; experiment: Anticonvulsant activity in Carworth farms No.1 albino mouse assessed as protection against 6 Hz electric current-induced seizure at 100 mg/kg, ip measured after 0.5 hrs; assay type: functional, organism-based; set-up: dose 100 mg/kg
[21] = tested on: Mus musculus; experiment: Anticonvulsant activity in Carworth farms No.1 albino mouse assessed as protection against 6 Hz electric current-induced seizure at 100 mg/kg, ip measured after 1 hrs; assay type: functional, organism-based; set-up: dose 100 mg/kg
[22] = tested on: Mus musculus; experiment: Anticonvulsant activity in Carworth farms No.1 albino mouse assessed as protection against 6 Hz electric current-induced seizure at 100 mg/kg, ip measured after 2 hrs; assay type: functional, organism-based; set-up: dose 100 mg/kg
[23] = tested on: Mus musculus; experiment: Anticonvulsant activity in Carworth farms No.1 albino mouse assessed as protection against 6 Hz electric current-induced seizure at 100 mg/kg, ip measured after 4 hrs; assay type: functional, organism-based; set-up: dose 100 mg/kg
[24] = tested on: Mus musculus; experiment: Neurotoxicity in Carworth farms No.1 albino mouse assessed as neurological impairment at 100 mg/kg, ip measured after 0.25 hrs; assay type: toxicity, organism-based; set-up: dose 100 mg/kg, route intraperitoneal; conditions: in vivo
[25] = tested on: Mus musculus; experiment: Neurotoxicity in Carworth farms No.1 albino mouse assessed as neurological impairment at 100 mg/kg, ip measured after 1 hr; assay type: toxicity, organism-based; set-up: dose 100 mg/kg, route intraperitoneal; conditions: in vivo
[26] = tested on: Mus musculus; experiment: Neurotoxicity in Carworth farms No.1 albino mouse assessed as neurological impairment at 100 mg/kg, ip measured after 2 hr; assay type: toxicity, organism-based; set-up: dose 100 mg/kg, route intraperitoneal; conditions: in vivo
[27] = tested on: Mus musculus; experiment: Anticonvulsant activity in ip dosed Carworth farms No.1 albino mouse assessed as protection against 6 Hz electric current-induced seizure measured after 0.25 hrs; assay type: functional
[28] = species on record: Mus musculus; experiment: Anticonvulsant activity in electric shock-induced Carworth farms No.1 albino mouse assessed as time of peak effect; assay type: functional

Row | SMILES | Activity [1] | Activity [2] | Activity [3] | Activity [4] | Activity [5] | Activity [6] | Activity [7] | Activity [8] | Activity [9] | Activity [10] | Activity [11] | Activity [12] | Activity [13] | Activity [14] | Activity [15] | Activity [16] | Activity [17] | Activity [18] | Activity [24] | Activity [25] | also measured
1 | O=C1[C@H](c2ccccc2)N2CCCC[C@H]2C(=O)N1CCc1ccccc1 [listing 1 of 2 here] | Non-toxic | Non-toxic | Non-toxic | Non-toxic | Non-toxic | Non-toxic |  |  |  |  |  |  |  |  |  |  |  |  |  |  | 
2 | O=C1CN2CCCC[C@H]2C(=O)N1 | Non-toxic | Non-toxic | Non-toxic | Non-toxic | Non-toxic | Non-toxic | inactive | inactive | inactive | inactive | inactive | inactive | inactive | inactive | inactive | inactive | inactive | inactive | Non-toxic | Non-toxic | Activity [19]: Active; Activity [20]: inactive; Activity [21]: Active; Activity [22]: inactive; Activity [23]: inactive; Activity [26]: Non-toxic
3 | Cl.O=C1[C@H]2CCCCN2[C@H](c2ccccc2)C(=O)N1CCc1ccccc1 | Non-toxic | Non-toxic | Non-toxic | Non-toxic | Non-toxic | Non-toxic |  |  |  |  |  |  |  |  |  |  |  |  | Non-toxic | Non-toxic | Activity [26]: Non-toxic; ED50 [27]: 78.5 mg/kg; Time [28]: 0.25 h
4 | O=C1[C@H]2CCCCN2[C@@H](c2ccccc2)C(=O)N1Cc1ccccc1 | Non-toxic | Non-toxic | Non-toxic | Non-toxic | Non-toxic | Non-toxic | inactive | inactive | inactive | inactive | inactive | inactive | inactive | inactive | inactive | inactive | inactive | inactive | Non-toxic | Non-toxic | Activity [19]: inactive; Activity [20]: inactive; Activity [21]: inactive; Activity [22]: inactive; Activity [23]: inactive; Activity [26]: Non-toxic
5 | O=C1NC(=O)[C@@H](c2ccccc2)N2CCCC[C@@H]12 | Non-toxic | Non-toxic | Non-toxic | Non-toxic | Non-toxic | Non-toxic | inactive | inactive | inactive | inactive | inactive | inactive | inactive | inactive | inactive | inactive | inactive | inactive | Non-toxic | Non-toxic | Activity [19]: inactive; Activity [20]: inactive; Activity [21]: inactive; Activity [22]: inactive; Activity [23]: inactive; Activity [26]: Non-toxic
6 | O=C1[C@H](c2ccccc2)N2CCCC[C@H]2C(=O)N1CCc1ccccc1 [listing 2 of 2 here] |  |  |  |  |  |  | inactive | inactive | inactive | inactive | inactive | inactive | inactive | inactive | inactive | inactive | inactive | inactive |  |  | Activity [19]: Active; Activity [20]: Active; Activity [21]: inactive; Activity [22]: inactive; Activity [23]: inactive
7 | Cl.O=C1[C@H](c2ccccc2)N2CCCC[C@H]2C(=O)N1CCc1ccccc1 | Non-toxic | Non-toxic | Non-toxic | Non-toxic | Non-toxic | Non-toxic |  |  |  |  |  |  |  |  |  |  |  |  | Non-toxic | Non-toxic | Activity [26]: Non-toxic
8 | O=C1[C@H]2CCCCN2[C@H](c2ccccc2)C(=O)N1CCc1ccccc1 [listing 1 of 2 here] | Non-toxic | Non-toxic | Non-toxic | Non-toxic | Non-toxic | Non-toxic |  |  |  |  |  |  |  |  |  |  |  |  | Non-toxic | Non-toxic | Activity [26]: Non-toxic
9 | O=C1CN2CCCC[C@@H]2C(=O)N1 | Non-toxic | Non-toxic | Non-toxic | Non-toxic | Non-toxic | Non-toxic | inactive | inactive | inactive | inactive | inactive | inactive | inactive | inactive | inactive | inactive | inactive | inactive | Non-toxic | Non-toxic | Activity [19]: inactive; Activity [20]: Active; Activity [21]: Active; Activity [22]: inactive; Activity [23]: inactive; Activity [26]: Non-toxic
10 | O=C1[C@H]2CCCCN2[C@H](c2ccccc2)C(=O)N1CCc1ccccc1 [listing 2 of 2 here] |  |  |  |  |  |  | inactive | inactive | inactive | inactive | inactive | inactive | inactive | inactive | inactive | inactive | inactive | inactive |  |  | Activity [23]: inactive
11 | CC[C@@H](C(N)=O)N1CCCC1=O [LEVETIRACETAM] |  |  |  |  |  |  |  |  |  |  |  |  |  |  |  |  |  |  |  |  | Time [28]: 1 h
12 | Cl.O=C1[C@H]2CCCCN2[C@H](c2ccccc2)C(=O)N1Cc1ccccc1 | Non-toxic | Non-toxic | Toxic | Non-toxic | Non-toxic | Non-toxic | inactive | inactive | Active | inactive | inactive | Active | inactive | inactive | inactive | inactive | inactive | inactive |  |  | 

Source: ChEMBL document CHEMBL1944578, “Synthesis and anticonvulsant activity of novel 2,6-diketopiperazine derivatives. Part 2: Perhydropyrido[1,2-a]pyrazines” (Eur J Med Chem, 2012)
